Experimental findings from ChEMBL document CHEMBL2346646, “Improving the inhibitory activity of arylidenaminoguanidine compounds at the N-methyl-D-aspartate receptor complex from a recursive computational-experimental structure-activity relationship study” (Bioorg Med Chem, 2013) are described below.

The structures appear in SMILES notation.

For the assay, the target named is Glutamate [NMDA] receptor. Set-up: species or system Homo sapiens.

The term pIC50 denotes the IC50 on a negative log10 scale, so that one unit is a factor of ten. For the compound `Cl.N=C(N)N/N=C/c1ccc([N+](=O)[O-])cc1`, the pIC50 is recorded as 4.11.
The result for `COc1ccccc1/C=N/NC(=N)N.Cl` reads 4.77; that for `CN(C)c1ccc(/C=N/NC(=N)N)cc1.Cl`, 5.1.
The result for `COc1ccc(/C=N/NC(=N)N)c(OC)c1.Cl` reads 4.54; that for `Cl.N=C(N)N/N=C/c1cccc([N+](=O)[O-])c1`, 3.81; that for `Cl.N=C(N)N/N=C/C=C/c1ccccc1`, 4.23.
Then `Cl.N=C(N)N/N=C/c1ccsc1`, with 3.74.
As to `Cc1ccc2cc(/C=N/NC(=N)N)[nH]c2c1.Cl`, the pIC50 came out at 4.48.
The compound `Cl.Cn1c(/C=N/NC(=N)N)cc2ccccc21` displayed a negative-log IC50 (pIC50) of 4.31.
The result for `Cl.N=C(N)N/N=C/c1ccc2[nH]ccc2c1` reads 4.3.
The result for `Cl.N=C(N)N/N=C/c1cc2ccccc2[nH]1` reads 4.24; that for `Cl.N=C(N)N/N=C/c1ccncc1`, 3.27.
Then `Cl.N=C(N)N/N=C/c1cccnc1`, with 3.17.
Consider `Cl.N=C(N)N/N=C/c1ccc[nH]1`, for which the pIC50 is 4.02.
For `Cl.N=C(N)N/N=C/c1ccc(-c2ccc([N+](=O)[O-])cc2)o1`, the negative logarithm of the IC50 (pIC50) came to 3.96.
The result for `Cc1ccc(/C=N/NC(=N)N)c2ccccc12.Cl` reads 4.94.
Then `Cc1ccc2ccccc2c1/C=N/NC(=N)N.Cl`, with 4.58; and `Cl.N=C(N)N/N=C/c1ccc2ccccc2c1`, with 5.06.
Then `Cl.N=C(N)N/N=C/c1cccc2ccccc12`, with 4.57; and `Cl.N=C(N)N/N=C/c1ccccc1-c1ccccc1`, with 5.07.
For `Cl.N=C(N)N/N=C/c1ccc(F)cc1F`, the negative-log IC50 (pIC50) turned out to be 4.26.
Then `Cl.N=C(N)N/N=C/c1ccc(F)cc1`, with 4.04; and `Cl.N=C(N)N/N=C/c1ccccc1F`, with 4.13; and `Cl.N=C(N)N/N=C/c1ccc(Cl)cc1Cl`, with 4.99.
As to `Cl.N=C(N)N/N=C/c1cccc(Cl)c1`, the pIC50 turned out to be 4.74.
The result for `Cl.N=C(N)N/N=C/c1ccccc1Cl` reads 5.15; that for `COc1ccc(/C=N/NC(=N)N)cc1[N+](=O)[O-].Cl`, 5.11; that for `COc1ccc(/C=N/NC(=N)N)cc1O.Cl`, 4.2.
Then `Cl.N=C(N)N/N=C/c1ccc(N)cc1`, with 3.96; and `Cl.N=C(N)N/N=C/c1cccc(N)c1`, with 3.65.
The result for `COc1ccc(/C=N/NC(=N)N)cc1.Cl` reads 4.42; that for `Cl.N=C(N)N/N=C/c1ccc(O)cc1O`, 3.67.
Regarding `Cl.N=C(N)N/N=C/c1ccccc1C(F)(F)F`, the negative logarithm of the IC50 (pIC50) is 4.6.
For the compound `CC(C)c1ccc(/C=N/NC(=N)N)cc1.Cl`, the pIC50 stood at 5.22.
The compound `CCCCc1ccc(/C=N/NC(=N)N)cc1.Cl` had a pIC50 of 4.37.
The compound `CC(C)(C)c1ccc(/C=N/NC(=N)N)cc1.Cl` yielded a pIC50 of 4.64.
Then `Cl.N#Cc1cccc(/C=N/NC(=N)N)c1`, with 4.36; and `Cl.N#Cc1ccc(/C=N/NC(=N)N)cc1`, with 3.64.
The result for `COC(=O)c1cccc(/C=N/NC(=N)N)c1.Cl` reads 4.14.
The result for `COC(=O)c1ccc(/C=N/NC(=N)N)cc1.Cl` reads 4.15; that for `Cl.N=C(N)N/N=C/c1ccccc1`, 4.14.
`Cc1ccc(/C=N/NC(=N)N)cc1.Cl`: the pIC50 is recorded as 4.09. The pIC50 values of the last two compounds are within 0.2 log units of each other.
The compound `Cl.N=C(N)N/N=C/c1ccc2c(c1)OCO2` returned a pIC50 of 4.41.
Then `Cl.Cl.N=C(N)N/N=C/c1ccc(/C=N/NC(=N)N)cc1`, with 4.49.
`Cl.N=C(N)N/N=C/c1ccc(Cl)cc1` displayed a negative-log IC50 (pIC50) of 5.44.
